Patent US8609361B2, “Real time electrophysiological testing of agents of interest for treatment of amyloid-type diseases” (Universidad de Concepcion, priority 2007, dated 2013)

Legend:
[1] = Aβ peptide aggregation in solution followed by turbidity (optical density); format: physicochemical; details: about 100 μM peptide in PBS pH 7.4, stirring about 600 rpm, about 37° C., after 120 minutes
Method: FIG. 2A is a graph indicating the Aβ peptide aggregation structure progress in solution. […] The solution absorbency measurement is observed as a change in optical densities (D.O.), which reflects formation of complex structures, amyloid aggregates. Images B-D correspond to ultra micro photographs obtained with an electronic microscope. The recognition of different structures formed during the aggregation process is possible. Aggregates obtained at 120 min and fibers obtained at 5 days of aggregation are readily noticed.
In order to generate the working solution, these portions are defrosted under a laminar flow bell and diluted in sterile PBS at pH 7.4. 700 μl PBS are added to the 25 μl of each peptide portion, obtaining a final work volume of 725 μl, with peptide at an approximate concentration of 100 μM. This peptide solution is defined as “Soluble Peptide” and it is mainly formed by Aβ peptide monomers. This soluble peptide is induced to aggregation by stirring at approximately 600 rpm at temperature around 37° C. During this process, the solution optical density is determined at 405 nm every 15 minutes for a total time of 120 minutes. […] This solution is called “Aggregate Peptide”, and electronic microscope inspection has determined that it corresponds to a heterogeneous structure population, among which amorphous aggregate shapes, 100 nm protofibril, and short fibers are noted.

[2] = system: neurons; test: whole-cell patch clamp, membrane potential; format: cell-based, mice; details: low concentrations (preferably less than 1 μM, more preferably 0.5 μM Aβ)
[3] = system: plasma membrane of hippocampal neurons; test: cell-attached to perforated patch-clamp recording with the agent in the glass pipette; format: cell-based, mice
Method: In absence of Aβ or gramicidin, cell attached recordings are stable for more than 60 min.
Control is the charge in cell-attached configuration and reflects the recording of the glass pipette properties partially compensated to visualize part of the transient. Negative pressure reflects the charge obtained with a routine whole-cell configuration. Gramicidin and amphotericin are antibiotics routinely used to generate perforates. Data are ±S.E. average (n=6; different experiments).
The experimental evidence of the invention allows establishing that conductance changes may be the result of the forming of a cationic-type pore, very similar to that generating gramicidin. […] Basically, this invention procedure is formed by two stages: • b) Exposing a small area or patch of plasma membrane, in a preferable embodiment said membranes are neuron membranes, to peptide aggregates under study and/or to active ingredients, and/or compounds of interest. • c) Determining, measuring, and quantifying electric parameters of membranes exposed to these aggregates; in a preferable embodiment, the parameter is conductance (inverse of electrical resistance resulting from resistance range and the glass pipette potential).
The method described in this invention uses a variation of the technique known as patch cell-attached to study the Aβ peptide effects. In this invention embodiment, records very stable in time are obtained and maintained for more than 5 minutes, preferably for more than 15 minutes, and more preferably for more than 30 minutes. At the same time, this embodiment provides an intrinsic noise level under 5 pA, preferably under 3 pA, and more preferably under 1 pA, which may be due to the registry being obtained from a small cell area that normally contains very few ionic channels. […] However, the most important characteristics in this event is the evidence of the fast capacitative resistance component, which reflects formation of a perforated form that supports the conclusion that pores are generated in the membrane (see FIGS. 1 and 2).
Animals are treated and handled according to the NIH recommendations. 18-day pregnant mice (C57BL7J6) are anesthetized with ether and sacrificed through cervical dislocation. Embryo are quickly removed and beheaded with sterile material. Brains are removed and kept in cold Hank medium.
The midbrain is separated in order to expose the hippocampus area, which is dissected from the brain and mechanically dispersed using trypsin, collagenase, and DNAsa III. Neurons are placed (“planted”) in 35 mm dishes covered with poly-L-lisine at a density of 350000 neurons per ml.
Neurons are left to grow in vitro during 12 days, and then recorded using electro-physiology. The means of culture is 80% MEM, 2 mM glutamine, and 10% bovine fetal serum. The means are changed every three days. Every reagent used is dissolved in PBS, which is used as control.
Peptide aggregates are diluted to working concentration and were made at concentrations from 0.01 μM to 50 μM, preferably between 0.03 and 20, more preferably 0.05 and 10 μM. This aggregate is diluted in an internal solution (called so because it artificially imitates intra-cell fluid) mainly formed by KCl, BAPTA, calcium, and ATP, as previously described. The aggregate is diluted in this solution, which is loaded into the pipette to be used for Patch-Clamp. This solution is taken into a tuberculin syringe, from which the needle has been removed, and a small capillary-HPLC is added. With this modified syringe, the internal solution volume is taken with no Aβ aggregates as control. It may also be used with the aggregate and/or other molecules of biologic interest in the event evaluations and determining the said molecules' pharmacologic activities is required.
Using the capillary-HPLC in the syringe, the internal solution is introduced into the glass pipette, slowly removing it as the pipette becomes full in order to reduce bubbles. […]

[4] = system: AMPA and NMDA receptors; details: reported in the art; cited from earlier work

Aβ: Synthetic peptide Aβ1-40 (TOCRIS or Sigma), human sequence of β-amyloid peptide, aggregated by stirring at 37° C.
solution optical density at 405 nm [1]: 0.2-0.3 | changes in membrane potential [2]: have not shown significant changes in membrane potential | conversion of the cell-attached recording into a perforated recording (increased capacitative peak and late conductance) ([3]; 500 nM in the glass pipette solution, FIG. 1A): spontaneously convert the recording into a perforated variation of the technique | charge transferred by the cellular membrane during a 10 mV pulse ([3]; FIG. 3, n=6): form perforations in the membrane | input current following the high-resistance seal formation ([3]; in the presence of Aβ): −40 to −70 pA | current range ([3]; low-concentration peptide, few pores in the cell): ≤ 50 pA | membrane de-polarization ([3]; measurements and recordings of the invention method): has not been detected

gramicidin
development of perforation ([3]; 50 μM in the glass pipette, FIG. 1B): typical perforation

N#Cc1cc2[nH]c(=O)c(=O)[nH]c2cc1[N+](=O)[O-] [CNQX]
inhibition of peptide effects on calcium levels [4]: inhibited
